The values below come from patent US20090048336A1, “ESCITALOPRAM OXALATE POWDERS” (priority 2007, published 2009).

Counter-ions that a name gives are not always drawn.

The nature of this data set: Particle size distribution of micronized escitalopram oxalate batches (laser light diffraction, Malvern instrument). The class given is physicochemical. As to conditions: micronized powder; for D50/D95: ratio of D50 to D95; for D50: size below which 50 volume percent of particles lie; for D50 / D95: Malvern instrument; for D95: size below which 95 volume percent of particles lie. From the text: The term D95 as used herein is defined as a size of particles where 95 volume percent of the particles have sizes less than the value given. The term D50 defines a size where 50 volume percent of the particles have sizes less than the value given.
The particle size distributions for the present application can measured using laser light diffraction equipment, such as are sold by Malvern Instruments Ltd., Malvern, Worcestershire, United Kingdom. Other types of equipment are also suitable for particle size distribution determinations.
The obtained solid was micronized in a jet mill to produce desired particle sizes. The feed pressure was adjusted to about 2 Kg/cm^2; the chamber pressure was adjusted to about 1.5 Kg/cm^2 and the feed rate to about 1 to 2 kg/hour. The material fed into the micronizer through a charging hopper. The obtained micronized material was collected into a container.

As to `CN(C)CCCC1(c2ccc(F)cc2)OCc2cc(C#N)ccc21` (stereo not drawn) [Batch 1, S-(+)-1-[3-(dimethyl-amino)propyl]-1-(p-fluorophenyl)-5-phthalancarbonitrile oxalate], where the note is “listed as 1”, the D50/D95 was 0.4293, the D50 worked out at 3.95 and the D95 is listed as 9.20.
On to `CN(C)CCCC1(c2ccc(F)cc2)OCc2cc(C#N)ccc21` (stereo not drawn) [Batch 2, S-(+)-1-[3-(dimethyl-amino)propyl]-1-(p-fluorophenyl)-5-phthalancarbonitrile oxalate], for which, under “listed as 2”, the D50/D95 amounted to 0.4653, the D50 is 4.56 and the D95 is on record as 9.80.
